Test results reported in patent publication US9593305B2, “Differentiation of pluripotent stem cells” (Janssen Biotech, Inc., priority 2008, dated 2017).

Test system: H1 human embryonic stem cells
Assay: Four-step differentiation with GDF-8, RT-PCR of pancreatic endoderm markers after step 4 (Example 19)
Format: cell-based
Settings: 100 ng/ml GDF-8 with Wnt3a or with 2.5 μM Compound 40
Protocol: The differentiation process was started three days after the cells were seeded into 6-well plates. A four-step protocol was used for the in vitro differentiation of H1 human embryonic stem cells to cells expressing markers characteristic of the pancreatic endoderm lineage. Step 1 was conducted over three days to generate cells expressing markers characteristic of the definitive endoderm lineage. On the first day of step 1, differentiation was initiated by aspirating spent culture medium and adding an equal volume of RPMI-1640 basal medium (Invitrogen; Cat #22400) with 2% Albumin Bovine Fraction V, Fatty Acid Free (FAF BSA) (Proliant Biologicals; Cat #SKU 68700) and 8 ng/ml bFGF. In one treatment group, duplicate sets of cells were treated with 100 ng/ml GDF-8 (R&D Systems; Cat #788-G8) and 20 ng/ml Wnt3a (R&D Systems; Cat #1324-WN/CF). In a second treatment group, duplicate sets of cells were treated with 100 ng/ml GDF-8 and 2.5 μM Compound 40. On the second and third day of step 1 differentiation, cells in all treatment groups were fed with RPMI-1640 containing 2% FAF BSA, 8 ng/ml bFGF and 100 ng/ml GDF-8 but without the addition of Wnt3a or Compound 40. […]
Step 4 of the differentiation protocol was carried out over three days. […] On the following day, cells in suspension culture were collected and counted. […]

Compound	markers characteristic of the pancreatic endoderm lineage at the conclusion of step 4 (RT-PCR)
C=CCN1CC(=O)NCCCc2cncc(c2)-c2ncnc(n2)Nc2cccc(c2)C1 [Compound 40, 14-Prop-2-en-1-yl-3,5,7,14,17,23,27-heptaazatetracyclo[19.3.1.1˜2.6˜0.1˜8,12˜]heptacosa-1(25), 2(27), 3,5,8(26), 9,11,21,23-nonaen-16-one]	expressed equivalent levels of markers characteristic of the pancreatic endoderm lineage
GDF-8: growth factor GDF-8, also known as myostatin, member of the TGF-β family	expressed equivalent levels of markers characteristic of the pancreatic endoderm lineage
